In patent publication US20240116948A1, “PYRIDO OXAZINE DERIVATIVES AS ALK5 INHIBITORS” (CHIESI FARMACEUTICI S.P.A., priority 2020, published 2024):
Read-outs that look alike come from different tables or passages of the source.

Molecular target: human ALK5 (Homo sapiens (Human), UniProt P36897)
Assay: ADP-GLO Kinases assay, inhibition of ALK5 kinase activity
Format: biochemical
Description: The enzymatic activity of compounds of the present invention was monitored measuring the formation of ADP using the ADP-GLO Kinases assay. Following the incubation of the purified enzyme, a substrate and ATP, the produced ADP was converted into ATP, which in turn was converted into light by Ultra-Glo Luciferase. The luminescent signal positively correlated with ADP amount and kinase activity. Briefly, the kinase reaction was performed by incubating 2.6 nM of the purified, commercially available human ALK5 (recombinant TGF 31 N-term GST-tagged, 80-end), a final concentration of TGFβ1 peptide 94.5 μM (Promega, T36-58) and ultra-pure ATP (Promega V915B). The ATP concentration was set at the Km value (concentration of substrate which permits the enzyme to achieve half maximal velocity (Vmax)) of ALK5 (5 μM). All reactions/incubations were performed at 25° C. Compound and ALK5 kinase were mixed and incubated for 15 mins. Reactions were initiated by addition of ATP at a final concentration in the assay of […]. After an incubation of 150 min, the reaction was stopped, and ADP production detected with ADP-Glo kit according to manufacturer's indications. The assay was performed in 384-well format and was validated using a selection of reference compounds that was tested in 11 point concentration-response curve.
Compounds of the examples C1 and C2 were tested in the same in vitro assay described above.

[1] = Table 12, compounds classified in term of potency, ATP at Km, 25° C., read-out: ALK5 IC50
[2] = Table 13, comparative examples, same in vitro assay, read-out: ALK5 IC50
[3] = summary statements in running text, read-out: IC50 / potency on ALK5

Chain of human ALK5 (P36897 80-503 limits assumed): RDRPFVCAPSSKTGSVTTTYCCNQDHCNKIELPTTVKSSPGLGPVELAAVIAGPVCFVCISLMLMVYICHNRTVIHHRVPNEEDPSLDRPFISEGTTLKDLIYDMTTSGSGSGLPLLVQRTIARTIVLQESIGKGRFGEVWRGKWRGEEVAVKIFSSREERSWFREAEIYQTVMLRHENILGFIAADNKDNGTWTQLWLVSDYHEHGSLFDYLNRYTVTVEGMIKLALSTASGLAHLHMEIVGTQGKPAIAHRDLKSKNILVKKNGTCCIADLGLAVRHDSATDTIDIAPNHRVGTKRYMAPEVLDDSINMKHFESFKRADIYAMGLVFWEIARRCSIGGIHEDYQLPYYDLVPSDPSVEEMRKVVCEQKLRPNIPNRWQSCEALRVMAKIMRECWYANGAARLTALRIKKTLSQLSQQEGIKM

Row | IC50 [1] [nM] | IC50 [2] [nM] | IC50 [3] [nM] | SMILES
1 | 1 to 5 | – | – | CN1CCN(CCC(=O)Nc2cncc(-c3cc(-c4cc(Cl)ccc4F)nc4c3OCCN4)c2)CC1 [Example 38, N-{5-[6-(5-chloro-2-fluorophenyl)-2H,3H,4H-pyrido[3,2-b][1,4]oxazin-8-yl]pyridin-3-yl}-3-(4-methylpiperazin-1-yl)propanamide]
2 | 5 to 10 | – | – | COC(=O)c1cncc(-c2cc(-c3cccc(C)n3)nc3c2OCCN3)c1 [Example 39, Methyl 5-[6-(6-methylpyridin-2-yl)-2H,3H,4H-pyrido[3,2-b][1,4]oxazin-8-yl]pyridine-3-carboxylate]
3 | 1 to 5 | – | – | O=C(OC1CC1)c1cncc(-c2cc(-c3cc(Cl)ccc3F)nc3c2OCCN3)c1 [Example 40, Cyclopropyl 5-[6-(5-chloro-2-fluorophenyl)-2H,3H,4H-pyrido[3,2-b][1,4]oxazin-8-yl]pyridine-3-carboxylate]
4 | 1 to 5 | – | – | CN1CCC(COc2cncc(-c3cc(-c4cc(Cl)ccc4F)nc4c3OCCN4)c2)CC1 [Example 42, 3-[6-(5-chloro-2-fluorophenyl)-2H,3H,4H-pyrido[3,2-b][1,4]oxazin-8-yl]-5-[(1-methylpiperidin-4-yl)methoxy]pyridine]
5 | 1 to 5 | – | – | O=C(CCN(CCO)CCO)Nc1cncc(-c2cc(-c3cc(Cl)ccc3F)nc3c2OCCN3)c1 [Example 43, 3-[bis(2-hydroxyethyl)amino]-N-{5-[6-(5-chloro-2-fluorophenyl)-2H,3H,4H-pyrido[3,2-b][1,4]oxazin-8-yl]pyridin-3-yl}propanamide]
6 | 1 to 5 | – | – | CN(CCC(=O)Nc1cncc(-c2cc(-c3cc(Cl)ccc3F)nc3c2OCCN3)c1)C1COC1 [Example 45, N-{5-[6-(5-chloro-2-fluorophenyl)-2H,3H,4H-pyrido[3,2-b][1,4]oxazin-8-yl]pyridin-3-yl}-3-[methyl(oxetan-3-yl)amino]propanamide]
7 | 5 to 10 | – | – | CN1CCN(CCC(=O)Nc2cncc(-c3cc(-c4cc(Cl)ccc4F)nc4c3OCCN4)c2)CC1=O [Example 46, N-{5-[6-(5-chloro-2-fluorophenyl)-2H,3H,4H-pyrido[3,2-b][1,4]oxazin-8-yl]pyridin-3-yl}-3-(4-methyl-3-oxopiperazin-1-yl)propanamide]
8 | 5 to 10 | – | – | CN1CCN(CCC(=O)Nc2cncc(-c3cc(-c4cc(Cl)ccc4F)nc4c3OCCN4)c2)C(=O)C1 [Example 47, N-{5-[6-(5-chloro-2-fluorophenyl)-2H,3H,4H-pyrido[3,2-b][1,4]oxazin-8-yl]pyridin-3-yl}-3-(4-methyl-2-oxopiperazin-1-yl)propanamide]
9 | 5 to 10 | – | – | COC(=O)CN(C)CCC(=O)Nc1cncc(-c2cc(-c3cc(Cl)ccc3F)nc3c2OCCN3)c1 [Example 48, Methyl 2-{[2-({5-[6-(5-chloro-2-fluorophenyl)-2H,3H,4H-pyrido[3,2-b][1,4]oxazin-8-yl]pyridin-3-yl}carbamoyl)ethyl](methyl)amino}acetate]
10 | – | 10000 | > 1700 | COc1ccc(-c2cc(-c3cc(Cl)ccc3F)nc3c2OCCN3)cc1 [Example C1, 6-(5-chloro-2-fluorophenyl)-8-(4-methoxyphenyl)-2H,3H,4H-pyrido[3,2-b][1,4]oxazine]
11 | – | 1710 | > 1700 | Oc1ccc(-c2cc(-c3cc(Cl)ccc3F)nc3c2OCCN3)cc1 [Example C2, 4-[6-(5-chloro-2-fluorophenyl)-2H,3H,4H-pyrido[3,2-b][1,4]oxazin-8-yl]phenol]
